# Measured values taken from PubChem BioAssay AID234 (DTP/NCI, 2004).
# Records with an inconclusive call do not appear.
# System: C3AKF1 mice, hamster liver cystadenocarcinoma s.c., tumor weight T/C
# Assay: NCI In Vivo Anticancer Drug Screen. Data for tumor model Cystadenocarcinoma, Liver (No. 1) (Hamster) (subcutaneous) in C3AKF1 (CHKRF1) mice
# Details: endpoint: mean tumor weight, schedule: Q01DX010 (ip), vehicle: carboxymethylcellulose (CMC), higher = larger tumour
# Description: The antitumor activity of compounds was measured in mice bearing transplantable tumors. Survival or tumor size were measured and the results are expressed as the measurement made in the treated group (T) divided by the measurement made in the vehicle treated control group (C). The tumor model used in this assay is Cystadenocarcinoma, Liver (No. 1) (Hamster) (subcutaneous) in C3AKF1 (CHKRF1) mice
Compound,T/C (dose: 0.75 mg/kg/injection),T/C (dose: 1.5 mg/kg/injection),T/C (dose: 3.0 mg/kg/injection),T/C (dose: 125.0 mg/kg/injection),T/C (dose: 250.0 mg/kg/injection)
Cc1nc(N)nc(N)c1-c1ccc(Cl)c(Cl)c1,83 % of control,106 % of control,100 % of control,–,–
O=CC(O)CO (stereo not given),–,–,–,120 % of control,108 % of control
